From patent US8314130B2, “Compounds inclunding substituted pyridines for inflammation and immune-related uses” (Synta Pharmaceuticals Corp., priority 2008, dated 2012)

Tests used:
[1] = target: T1, CRACM1/STIM1 (Homo sapiens, UniProt Q96D31); experiment: ICRAC current inhibition in CRACM1/STIM1-CHOK1 cells (patch clamp); assay type: cell-based; conditions: activity class; for inhibition at 0.5 µM: 500 nM
T1 construct: Full length human Stim1, CracM1, CracM2 and CracM3 cDNA
Procedure: Manual patch clamp experiments are conducted in the tight-seal whole-cell configuration at room temperature (21-25° C.). Patch pipettes are fashioned from borosilicate glass capillary tubes and have resistances between 2-4 MO after filling with standard intracellular solution. High resolution current recordings are acquired with a computer-based patch clamp amplifier system (EPC-10, HEKA, Lambrecht, Germany). All voltages are corrected for a liquid junction potential of 10 mV between external and internal solutions with glutamate as the intracellular anion. Currents are filtered at 2.9 kHz and digitized at 10 μs intervals. Capacitive currents and series resistance are determined and corrected before each voltage ramp using the automatic capacitance compensation of the EPC-10.
Automated patch clamp experiments are conducted with the QPatch 16 (Sophion Bioscience, Ballerup, Denmark) at room temperature (21-25° C.). Immediately following the establishment of giga-seal whole-cell configuration, the cells membrane potential is clamped at 0 mV. Voltage ramps of 50 ms duration spanning the voltage range of −100 to +100 mV are then stimulated at a rate of 0.33 Hz. Currents are filtered at 2.9 kHz and digitized at 200 μs intervals. Capacitive currents and series resistance are determined and corrected before each voltage ramp using the automatic capacitance compensation.
In general, a whole cell patch clamp method is used to examine the effects of a compound of the invention on a channel(s) that mediates ICRAC. In such experiments, a baseline ICRAC measurement is established within the first 70 voltage ramps, or 140 seconds, for a patched cell. Then the cells are perfused with the compound to be tested and the effect of the compound on ICRAC is measured for at least an additional 440 to 500 seconds. A compound that modulates ICRAC (e.g., inhibits) is a compound that is useful in the invention for modulating CRAC ion channel activity.
ICRAC currents are measured using 50 msec voltage ramps between −100 mV to +100 mV. The voltage ramps are stimulated every 2 seconds for the first 70 sweeps, then every 5 seconds for the remainder of the experiment. The membrane potential is held at 0 mV between the test ramps. In a typical experiment, the peak inward currents will develop within 50-100 seconds. Once the ICRAC current is stabilized, the cells are perfused with a test compound in the extracellular solution for at least an additional 500 seconds.
Off-line analysis with the Heka PatchMaster software is used to separate the ICRAC membrane current from the cells basal background currents. In a typical recording, InsP3 stimulated ICRAC currents begin to develop in 6 to 12 seconds after whole cell is established. Therefore, the first 1-4 voltage ramps represent the basal membrane currents in the absence of ICRAC and the average value is subtracted from all subsequent traces. The current value at −80 mV for each ramp trace is then measured and plotted against time. The resulting current versus time data is exported into a Microsoft Excel spreadsheet. The % ICRAC inhibition in each cell is calculated by comparing the amount of current just prior to the compound perfusion to the amount of current after the cells has been perfused with the compound for 440-500 seconds. The IC50 value and Hill coefficient for each compound is estimated by fitting all the individual data points to a single-site Hill equation.
TREx™-CHO cells were transfected with human Stim1 (recombinant DNA in pcDNA4/TO/myc-His™ A with a myc epitope tag in the N-terminal) and either CracM1, CracM2 or CracM3 (recombinant DNA in pcDNA 3.1 with a HA epitope tag in the N-terminal). Stably expressing cells were selected by growing the transfected cells in antibiotics for two to three weeks. Individual cell clones were isolated via serial dilution. […]

[2] = system: IL-2; experiment: Inhibition of IL-2 production in PHA-activated Jurkat cells (1% FBS), ELISA; assay type: cell-based; conditions: Homo sapiens, activity class, read-out: IL-2 current inhibition Jurkat/PHA/1% FBS IC50
Procedure: Jurkat cells were placed in a 96 well plate (0.5 million cells per well in 1% FBS medium), and then a test compound of this invention was added at different concentrations. After 10 minutes, the cells were activated with PHA (final concentration 2.5 μg/mL) and incubated for 20 hours at 37° C. under 5% CO2. The final volume was 200 Following incubation, the cells were centrifuged, and the supernatants collected and stored at −70° C. prior to assaying for IL-2 production. A commercial ELISA kit (IL-2 Eli-pair, Diaclone Research, Besancon, France) was used to detect production of IL-2, from which dose response curves were obtained. The IC50 value was calculated as the concentration at which 50% of maximum IL-2 production after stimulation was inhibited versus a non-stimulation control.

T1 sequence (Q96D31 whole entry): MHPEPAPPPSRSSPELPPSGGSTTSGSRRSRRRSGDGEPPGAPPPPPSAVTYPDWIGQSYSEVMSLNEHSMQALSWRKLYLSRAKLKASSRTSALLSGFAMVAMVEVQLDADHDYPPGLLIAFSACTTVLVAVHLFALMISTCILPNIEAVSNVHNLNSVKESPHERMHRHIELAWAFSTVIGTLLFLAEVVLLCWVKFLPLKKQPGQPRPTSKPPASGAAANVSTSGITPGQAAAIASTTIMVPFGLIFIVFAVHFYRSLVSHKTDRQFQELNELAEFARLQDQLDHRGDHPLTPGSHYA

Structure (SMILES) | inhibition at 0.5 µM [1] [%] | IC50 [2] [µM] | ICRAC current inhibition CRACM1/STIM1-CHOK1 % Inhibition at 500 nM [1]
CC(C)c1sc(-c2cccnc2)cc1-c1ccc(NC(=O)c2c(F)cccc2F)nc1 [Compound 11, 2,6-difluoro-N-(5-(2-isopropyl-5-(pyridin-3-yl)thiophen-3-yl)pyridin-2-yl)-benzamide] | < 50 | < 0.05 | 
C=C(C)c1sc(-c2cccnc2)cc1-c1ccc(NC(=O)c2c(F)cccc2F)cc1 [Compound 14, 2,6-difluoro-N-(4-(2-(prop-1-en-2-yl)-5-(pyridin-3-yl)thiophen-3-yl)phenyl)benzamide] | < 50 | < 0.05 | 
CC(C)c1sc(-c2cccnc2)cc1-c1ccc(NC(=O)c2c(F)cccc2F)cc1 [Compound 15, 2,6-difluoro-N-(4-(2-isopropyl-5-(pyridin-3-yl)thiophen-3-yl)phenyl)benzamide] | 50 to 70 | < 0.05 | 
Cc1sc(-c2cccnc2)nc1-c1ccc(NC(=O)c2c(F)cccc2F)cc1 [F] | 50 to 70 | < 0.05 | 

The remaining lines, values ahead:

inhibition at 0.5 µM [1] [%] | IC50 [2] [µM] | ICRAC current inhibition CRACM1/STIM1-CHOK1 % Inhibition at 500 nM [1] | Structure (SMILES)
70 to 100 | < 0.05 |  | Cc1sc(-c2cnn(C)c2)nc1-c1ccc(NC(=O)c2c(F)cccc2F)cc1 [H]
 | < 0.05 | High | Cc1sc(C(=O)c2cccnc2)cc1-c1ccc(NC(=O)c2c(F)cccc2F)cc1 [O]
